Test results: patent publication US7589206B2, “Pyrrolopyridine derivatives” (Glaxo Group Limited, priority 2004, dated 2009)
“Also recorded” adds a separate entry of the source. Structures can show the parent of a compound that is named as a salt. Where two headings read alike, the source gives them in different places.

What was measured:
Assay type in all cases: cell-based
[1] = molecular target: T1, human cannabinoid CB1 receptor (Homo sapiens, UniProt P21554); assay: Cannabinoid CB1 receptor agonist activity in yeast cells expressing the receptor (FDGlu fluorescence); conditions: yeast assay, individual values of the exceptions; for EC50: read-out: EC50 at the cloned human cannabinoid CB1 receptor; for Emax: relative to HU210, read-out: efficacy (Emax) at the cloned human cannabinoid CB1 receptor
T1 construct: expressed in transfected cells; host or cells: Saccharomyces cerevisiae strain MMY23 (Gpa1/Galphai3 chimeric G-protein alpha subunit)
Protocol: The cannabinoid CB1 receptor agonist activity of compounds of formula (I) was determined in accordance with the following experimental method.
(§1) Yeast (Saccharomyces cerevisiae) cells expressing the human cannabinoid CB1 receptor were generated by integration of an expression cassette into the ura3 chromosomal locus of yeast strain MMY23. This cassette consisted of DNA sequence encoding the human CB1 receptor flanked by the yeast GPD promoter to the 5′ end of CB1 and a yeast transcriptional terminator sequence to the 3′ end of CB1. MMY23 expresses a yeast/mammalian chimeric G-protein alpha subunit in which the C-terminal 5 amino acids of Gpa1 are replaced with the C-terminal 5 amino acids of human Gαi3 (as described in Brown et al. (2000), Yeast 16:11-22). Cells were grown at 30° C. in liquid Synthetic Complete (SC) yeast media (Guthrie and Fink (1991), Methods in Enzymology, Vol. 194) lacking uracil, tryptophan, adenine and leucine to late logarithmic phase (approximately 6 OD600/ml).
Agonists were prepared as 10 mM stocks in DMSO. EC50 values (the concentration required to produce 50% maximal response) were estimated using dilutions of between 3- and 5-fold (BiomekFX, Beckman) into DMSO. Agonist solutions in DMSO (1% final assay volume) were transferred into black, clear bottom, microtitre plates from NUNC (96- or 384-well). Cells were suspended at a density of 0.2 OD600/ml in SC media lacking histidine, uracil, tryptophan, adenine and leucine and supplemented with 10 mM 3-aminotriazole, 0.1M sodium phosphate pH 7.0, and 20 μM fluorescein di-β-D-glucopyranoside (FDGlu). This mixture (50 ul per well for 384-well plates, 200 ul per well for 96-well plates) was added to agonist in the assay plates (Multidrop 384, Labsystems). After incubation at 30° C. for 24 hours, fluorescence resulting from degradation of FDGlu to fluorescein due to exoglucanase, an endogenous yeast enzyme produced during agonist-stimulated cell growth, was determined using a Spectrofluor microtitre plate reader (Tecan; excitation wavelength: 485 nm; emission wavelength: 535 nm). Fluorescence was plotted against compound concentration and iteratively curve fitted using a four parameter fit to generate a concentration effect value. Efficacy (Emax) was calculated from the equation Emax=Max[compound X]−Min[compound X]/Max[HU210]−Min[HU210]×100%
(§2) where Max[compound X] and Min[compound X] are the fitted maximum and minimum respectively from the concentration effect curve for compound X, and Max[HU210] and Min[HU210] are the fitted maximum and minimum respectively from the concentration effect curve for (6aR,10aR)-3-(1,1′-Dimethylheptyl)-6a,7,10,10a-tetrahydro-1-hydroxy-6,6-dimethyl-6H-dibenzo[b,d]pyran-9-methanol (HU210; available from Tocris). Equieffective molar ratio (EMR) values were calculated from the equation EMR=EC50 [compound X]/EC50 [HU210]
(§3) Where EC50 [compound X] is the EC50 of compound X and EC50 [HU210] is the EC50 of HU210.

[2] = molecular target: T2, human cannabinoid CB2 receptor (Homo sapiens, UniProt P34972); assay: Cannabinoid CB2 receptor agonist activity in yeast cells expressing the receptor (FDGlu fluorescence); conditions: for CB2 activity at the cloned human cannabinoid CB2 receptor (in words): b47 says only 'the assay used'
T2 construct: expressed in transfected cells; host or cells: Saccharomyces cerevisiae strain MMY23 (Gpa1/Galphai3 chimeric G-protein alpha subunit)
Protocol: The cannabinoid CB2 receptor agonist activity of compounds of formula (I) was determined in accordance with the following experimental method.
as §1, with “CB2” for “CB1”, “CB2.” for “CB1.”, “OD600/m).” for “OD600/ml).”
Agonists were prepared as 10 mM solutions in DMSO. EC50 values (the concentration required to produce 50% maximal response) were estimated using dilutions of between 3- and 5-fold (BiomekFX, Beckman) into DMSO. Agonist solutions in DMSO (1% final assay volume) were transferred into black microtitre plates from NUNC (96- or 384-well). Cells were suspended at a density of 0.2 OD600/ml in SC media lacking histidine, uracil, tryptophan, adenine and leucine and supplemented with 10 mM 3-aminotriazole, 0.1M sodium phosphate pH 7.0, and 20μM fluorescein di-β-D-glucopyranoside(FDGlu). This mixture (50 ul per well) was added to agonist in the assay plates (Multidrop 384, Labsystems). After incubation at 30° C. for 24 hours, fluorescence resulting from degradation of FDGlu to fluorescein due to exoglucanase, an endogenous yeast enzyme produced during agonist-stimulated cell growth, was determined using a fluorescence microtitre plate reader (Tecan Spectrofluor or LJL Analyst excitation wavelength: 485 nm; emission wavelength: 535 nm). Fluorescence was plotted against compound concentration and iteratively curve fitted using a four parameter fit to generate a concentration effect value. Efficacy (Emax) was calculated from the equation Emax=Max[compound X]−Min[compound X]/Max[HU210]−Min[HU210]×100%
as §2, §3

[3] = molecular target: T3, human recombinant CB2 receptors (Homo sapiens, UniProt P34972); assay: CB2 agonist effects in a reporter gene assay (CHO-K1 CB2 CRE-LUC cells, inhibition of forskolin response); conditions: 'active except' = excluded from the actives, i.e. not active
T3 construct: expressed in transfected cells; host or cells: CHO-K1 CB2 CRE-LUC cells
Protocol: CB2 agonist effects were determined using a reporter gene assay. These studies were performed using a CHO-K1 cell line expressing human recombinant CB2 receptors (CHO-K1 CB2 CRE-LUC cells). These cells additionally express a “CRE-LUC” reporter gene construct comprising the gene for luciferase under the control of multiple cAMP response element binding protein promoters. In these cells, increases in intracellular cAMP levels leads to transcription of the luciferase gene and the subsequent production of luciferase. The expression of luciferase is measured by addition to the cells of a proprietary mixture containing luciferin, the substrate for luciferase (Luclite, Perkin Elmer, Cat No 6016919). The resultant reaction leads to the generation of light which is measured in a TopCount scintillation counter. […]
CHO-K1 CB2 CRE-LUC cells were grown in DMEM/F12 plus glutamax I medium (Gibco Cat. No. 31331-028), supplemented with 9% FBS (Gibco, Cat. No. 16000-040) and 0.5 mg·ml^−1 G418 (Gibco, Cat. No. 10131-027) and 0.5 mg·ml^−1 Hygromycin (Invitrogen, Cat. No. 10687-010). […] Finally, luminescence was measured using a Packard TopCount scintillation counter. Data Analysis For each compound maximal inhibition of the forskolin response and the EC50 for this effect was determined. […]

T2 sequence (P34972 whole entry): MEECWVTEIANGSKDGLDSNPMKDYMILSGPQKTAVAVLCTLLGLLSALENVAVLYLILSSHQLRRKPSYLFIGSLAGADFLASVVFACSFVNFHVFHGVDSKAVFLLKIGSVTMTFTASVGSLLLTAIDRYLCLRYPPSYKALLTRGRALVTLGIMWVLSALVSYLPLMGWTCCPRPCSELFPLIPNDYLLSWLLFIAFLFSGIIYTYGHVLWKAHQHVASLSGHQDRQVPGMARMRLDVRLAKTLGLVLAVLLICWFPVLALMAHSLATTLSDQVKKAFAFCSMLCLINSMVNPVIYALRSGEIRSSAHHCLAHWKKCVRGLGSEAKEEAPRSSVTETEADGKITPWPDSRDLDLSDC
T1 sequence (P21554 whole entry): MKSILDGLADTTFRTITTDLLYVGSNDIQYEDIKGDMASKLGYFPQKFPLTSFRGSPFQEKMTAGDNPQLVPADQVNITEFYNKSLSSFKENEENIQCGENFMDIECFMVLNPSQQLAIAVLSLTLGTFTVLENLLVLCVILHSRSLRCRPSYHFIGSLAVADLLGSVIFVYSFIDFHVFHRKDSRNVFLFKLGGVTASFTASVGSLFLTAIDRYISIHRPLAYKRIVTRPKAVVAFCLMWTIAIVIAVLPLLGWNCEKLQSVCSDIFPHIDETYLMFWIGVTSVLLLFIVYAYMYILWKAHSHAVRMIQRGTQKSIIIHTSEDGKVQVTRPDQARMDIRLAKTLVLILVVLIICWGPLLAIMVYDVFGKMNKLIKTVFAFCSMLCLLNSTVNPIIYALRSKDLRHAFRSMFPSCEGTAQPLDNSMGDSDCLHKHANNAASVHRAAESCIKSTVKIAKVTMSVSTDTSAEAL
T3 sequence (P34972 whole entry): as the sequence (P34972 whole entry) above

Structure (SMILES) | EC50 [1] [nM] | Emax [1] [%] | EC50 [2] [nM] | other results
Cn1ccc2c(Nc3cccc(Cl)c3)ncc(C(=O)N3CCSCC3)c21 [Example 237, N-(3-Chlorophenyl)-1-methyl-7-(4-thiomorpholinylcarbonyl)-1H-pyrrolo[3,2-c]pyridin-4-amine] | 738 | 92 |  | 
Cn1ccc2c(Nc3ccc(C#N)c(Cl)c3)ncc(C(=O)N3CCOCC3)c21 [Example 130, 2-Chloro-4-{[1-methyl-7-(4-morpholinylcarbonyl)-1H-pyrrolo[3,2-c]pyridin-4-yl]amino}benzonitrile hydrochloride] | 897 | 30 |  | 
Cc1c[nH]c2c(N3CCOCC3)ncc(C(=O)NCC3CCOCC3)c12.Cl [Example 23, 3-methyl-7-morpholin-4-yl-1H-pyrrolo[2,3-c]pyridine-4-carboxylic acid (tetrahydro-pyran-4-ylmethyl)-amide] |  |  |  | CB2 activity at the cloned human cannabinoid CB2 receptor (in words) ([2]; yeast assay): inactive; also recorded: did not appear to have CB2 activity; CB2 agonist activity in reporter gene assay (in words) [3]: active except
Cc1c[nH]c2c(N3CCOCC3)ncc(C(=O)NC3CCOCC3)c12.Cl [Example 22, 3-methyl-7-morpholin-4-yl-1H-pyrrolo[2,3-c]pyridine-4-carboxylic acid (tetrahydro-pyran-4-yl)-amide] |  |  |  | CB2 activity at the cloned human cannabinoid CB2 receptor (in words) ([2]; yeast assay): inactive; also recorded: did not appear to have CB2 activity; CB2 agonist activity in reporter gene assay (in words) [3]: active except
CN(c1cccc(Cl)c1)c1ncc(C(=O)NCC2CCC2)c2c1ccn2C [Example 67, 4-[(3-Chloro-phenyl)-methyl-amino]-1-methyl-1H-pyrrolo[3,2-c]pyridine-7-carboxylic acid cyclobutylmethyl amide hydrochloride] |  |  | 300 to 1000 | 
Cc1cc(F)ccc1Nc1ncc(C(=O)N2CCOCC2)c2c1ccn2C [Example 183, N-(4-Fluoro-2-methylphenyl)-1-methyl-7-(4-morpholinylcarbonyl)-1H-pyrrolo[3,2-c]pyridin-4-amine hydrochloride] |  |  |  | EC50 ([2]; yeast assay, read-out: EC50 at the cloned human cannabinoid CB2 receptor): 300 to 1000 nM
COc1ccccc1Nc1ncc(C(=O)N2CCOCC2)c2c(C)c[nH]c12 [Example 72, 1-[7-(2-Methoxy-phenylamino)-3-methyl-1H-pyrrolo[2,3-c]pyridin-4-yl]-1-morpholin-4-yl-methanone hydrochloride salt] |  |  | 300 to 1000 | 
Cc1ccc(Nc2ncc(C(=O)N3CCOCC3)c3c2ccn3C)c(C)c1 [Example 184, N-(2,4-Dimethylphenyl)-1-methyl-7-(4-morpholinylcarbonyl)-1H-pyrrolo[3,2-c]pyridin-4-amine hydrochloride] |  |  | 300 to 1000 | 
Cn1ccc2c(Nc3ccc(C#N)c(Br)c3)ncc(C(=O)N3CCOCC3)c21 [Example 162, 2-Bromo-4-{[1-methyl-7-(4-morpholinylcarbonyl)-1H-pyrrolo[3,2-c]pyridin-4-yl]amino}benzonitrile hydrochloride] | 801 | 33 |  | 
Cn1ccc2c(Nc3cc(Cl)cc(Cl)c3)ncc(C(=O)N3CCOCC3)c21 [Example 124, N-(3,5-Dichlorophenyl)-1-methyl-7-(4-morpholinylcarbonyl)-1H-pyrrolo[3,2-c]pyridin-4-amine hydrochloride] | 508 | 75 |  | 
